Data reported in article PMC8151276, “An Integrated Approach toward NanoBRET Tracers for Analysis of GPCR Ligand Engagement” (Molecules, 2021).

Legend:
ADRA2A = biological target: T1, ADRA2A (Homo sapiens, UniProt P08913); assay: NanoBRET screen HiBiT-ADRA2A in HEK293; assay type: binding; settings: ADRA2A
T1 construct: purchased Promega (in-house HiBiT-GPCR construct library, NanoBRET)
T1 sequence (P08913 1-465): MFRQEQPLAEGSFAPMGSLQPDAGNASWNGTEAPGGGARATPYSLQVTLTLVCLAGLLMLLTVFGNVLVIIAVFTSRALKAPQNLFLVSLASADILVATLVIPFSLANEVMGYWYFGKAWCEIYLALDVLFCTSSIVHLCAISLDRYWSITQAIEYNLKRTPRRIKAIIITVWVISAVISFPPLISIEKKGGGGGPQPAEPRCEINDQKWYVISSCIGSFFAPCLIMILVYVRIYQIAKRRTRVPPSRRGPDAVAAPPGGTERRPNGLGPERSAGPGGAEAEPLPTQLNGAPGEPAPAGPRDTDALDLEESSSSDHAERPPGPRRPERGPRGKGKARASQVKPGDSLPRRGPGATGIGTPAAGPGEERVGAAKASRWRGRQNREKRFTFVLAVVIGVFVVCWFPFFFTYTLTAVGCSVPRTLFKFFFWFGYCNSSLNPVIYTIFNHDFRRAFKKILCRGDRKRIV
Method: (§1) Each tracer candidate was screened across the entire library of HiBiT-GPCR constructs using NanoBRET as the detection modality. As depicted in Figure 4A, the specificity of interactions was evaluated through decrease in BRET due to competitive displacement of a bound tracer by excess parental compound. Each tracer was analyzed for binding to each HiBiT-GPCR fusion in the absence and in the presence of competing parental compound. Briefly, HEK293 cells were transfected with HiBiT-GPCR constructs diluted into promoterless DNA to reduce expression and maximize translocation to the cell surface. Each tracer candidate was then screened at concentrations of 1 μM and 0.1 μM across cells expressing these fusions. Cells were treated for 1.5 h with tracer either alone or in the presence of 20 μM competing parental compound (i.e., control). BRET was measured upon addition of purified LgBiT and subsequent complementation with HiBiT genetically fused to a GPCR. The specificity of interactions was assessed through a decrease in BRET signal due to competitive displacement of the bound tracer. To further gauge the robustness of these interactions, the fold response over the control (i.e., BRETtracer/BRETcontrol) was calculated. We chose a 1.5-fold response, which translates to ≥7-fold signal over noise as the minimal threshold required to score an interaction as positive.
(§2) HiBiT-GPCR DNA constructs were diluted in 10 mM Tris pH 8 to a final concentration of 0.01 μg/μL, arrayed in 96-well plates and stored at −20 °C. For transfection, HEK293 cells were suspended in Opti-MEM (without phenol red) supplemented with 2% fetal bovine serum (Seradigm) and 100 units/mL penicillin–streptomycin (Gibco) at a final concentration of 220,000 cells/mL and dispensed into white 96-well plates at 90 μL/well. Subsequent transfections and screens were carried using an Agilent Bravo Automated Liquid Handling Platform. First, the 96-well HiBiT DNA arrays were diluted 25-fold in Opti-MEM (without serum or phenol red) to a final concentration of 0.0004 μg/μL and 20 μL of the diluted DNAs were transferred into new 96-well plates. Next, promoterless carrier DNA (1 μg/μL) was diluted 25-fold (0.04 μg/μL) and then dispensed into the diluted arrays at 20 μL/well. Following brief mixing, Viafect transfection reagent (Promega) diluted 16-fold into Opti-MEM was dispensed into the plates at 40 μL/well. After mixing by pipetting, plates were incubated for 10 min on the pipetting station deck. The DNA-transfection reagent complexes were then added to plates containing cells. To facilitate the screen, 10 μL of DNA-transfection reagent complexes were added in duplicates to the top 4 and bottom 4 rows, resulting in two identical 48-well arrays per plate. Plates with transfected cells were incubated for 18–20 h at 37 °C/5% CO2. A screen of each tracer across the entire library using two different concentrations requires duplicate plates of transfected cells. Depending on the number of tracers being screened, transfections can be scaled up using the same ratios. The next day, for each tracer, four 20× screening solutions in tracer dilution buffer (Promega) were prepared: two duplicates at final concentration of 20 μM and two duplicates at a final concentration of 2 μM. […] The four resulting solutions were diluted 4-fold in Opti-MEM without serum or phenol red to generate 5× solutions (5 µM and 0.5 µM tracer +/− 100 μM competing compound). To screen the library, a BioTek MultiFlo FX liquid dispenser was used to dispense 22.5 µL of tracer solution to the top 4 rows and 22.5 µL tracer + competing compound solution to the 4 bottom rows. Plates were briefly mixed on an orbital shaker and incubated for 1.5 h at room temperature. […] Plates were briefly mixed on an orbital shaker and incubated for 15 min to allow complementation.

CHRM2 = biological target: T2, CHRM2 (Homo sapiens, UniProt P08172); assay: NanoBRET screen HiBiT-CHRM2 in HEK293; assay type: binding; settings: CHRM2
T2 construct: purchased Promega (in-house HiBiT-GPCR construct library, NanoBRET)
T2 sequence (P08172 1-466): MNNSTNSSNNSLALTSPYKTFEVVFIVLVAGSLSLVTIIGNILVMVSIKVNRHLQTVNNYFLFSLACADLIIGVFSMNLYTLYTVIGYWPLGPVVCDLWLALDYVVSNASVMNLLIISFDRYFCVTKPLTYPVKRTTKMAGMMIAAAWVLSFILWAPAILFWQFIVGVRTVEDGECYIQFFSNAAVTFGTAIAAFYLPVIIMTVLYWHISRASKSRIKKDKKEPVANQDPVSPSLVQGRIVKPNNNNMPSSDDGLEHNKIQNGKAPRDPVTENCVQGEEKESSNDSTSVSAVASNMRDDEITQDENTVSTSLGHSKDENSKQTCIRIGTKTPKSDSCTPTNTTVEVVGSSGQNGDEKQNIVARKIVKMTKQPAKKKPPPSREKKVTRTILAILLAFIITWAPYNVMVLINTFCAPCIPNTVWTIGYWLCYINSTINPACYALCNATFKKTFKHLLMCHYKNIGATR
Method: as §1, §2

## Cc1nc2n(c(=O)c1CCN1CCC(c3noc4cc(F)ccc34)CC1)CCCC2OC(=O)NCCOCCOCCOCCOCCNC(=O)CCc1ccc2n1[B-](F)(F)[N+]1=C(c3ccc[nH]3)C=CC1=C2 (stereo not shown) [Risperidone-2-NB590]
ADRA2A; tracer 0.1μM
  NanoBRET Fold Response: 1.29
ADRA2A; tracer 1μM
  NanoBRET Fold Response: 2.34
CHRM2; tracer 0.1μM
  NanoBRET Fold Response: 1.09
CHRM2; tracer 1μM
  NanoBRET Fold Response: 1.26

## CC(C)N(CC[C@H](c1ccccc1)c1cc(CCNC(=O)CCOCCOCCOCCOCCNC(=O)CCc2ccc3n2[B-](F)(F)[N+]2=C(c4ccc[nH]4)C=CC2=C3)ccc1O)C(C)C [Tolterodine-2-NB590]
ADRA2A; tracer 0.1μM
  NanoBRET Fold Response: 1.00
ADRA2A; tracer 1μM
  NanoBRET Fold Response: 1.02
CHRM2; tracer 0.1μM
  NanoBRET Fold Response: 2.98
CHRM2; tracer 1μM
  NanoBRET Fold Response: 1.51

## CC(C)N(CC[C@H](c1ccccc1)c1cc(CCNC(=O)c2ccc(CNC(=O)CCc3ccc4n3[B-](F)(F)[N+]3=C(c5ccc[nH]5)C=CC3=C4)cc2)ccc1O)C(C)C [Tolterodine-BZ-NB590]
ADRA2A; tracer 0.1μM
  NanoBRET Fold Response: 1.08
ADRA2A; tracer 1μM
  NanoBRET Fold Response: 1.07
CHRM2; tracer 0.1μM
  NanoBRET Fold Response: 3.84
CHRM2; tracer 1μM
  NanoBRET Fold Response: 2.14

## CCCn1c(=O)c2[nH]c(-c3ccc(OCC(=O)NCCNC(=O)CCOCCNC(=O)c4ccc(CNC(=O)CCc5ccc6n5[B-](F)(F)[N+]5=C(c7ccc[nH]7)C=CC5=C6)cc4)cc3)nc2n(CCC)c1=O [XAC-3-NB590]
ADRA2A; tracer 0.1μM
  NanoBRET Fold Response: 0.97
ADRA2A; tracer 1μM
  NanoBRET Fold Response: 1.11
CHRM2; tracer 0.1μM
  NanoBRET Fold Response: 1.28
CHRM2; tracer 1μM
  NanoBRET Fold Response: 2.12
